Source: patent publication US8778985B2, “Inhibiting amyloid-beta peptide/rage interaction at the blood-brain barrier” (The University of Rochester, priority 2006, dated 2014)

Target: T1, RAGE (Homo sapiens, UniProt Q15109)
T1 construct: expressed in transfected cells; host or cells: Chinese hamster ovary (CHO) cells
Experiment: 125I-Aβ40 specific binding on RAGE-transfected CHO cells at 4° C., competitive inhibition
Conditions: for inhibitory constant (Ki) of Aβ-RAGE binding: competitive
Excerpt: Data are mean±s.e.m., n=3 per group.
All three are tertiary amides substituted with a large, hydrophobic hydrocarbon moiety and a monosubstituted aromatic moiety. Linkage to the monosubstituted aromatic is either direct (FPS2) or via an alkyl (FPS1) or heteroaromatic (FPS3) spacer. Two of the compounds also feature a highly electron-poor substituted benzene ring (3-nitro, 4-chloro for FPS1; 3,5-dinitro for FPS2).

T1 sequence (Q15109 23-404): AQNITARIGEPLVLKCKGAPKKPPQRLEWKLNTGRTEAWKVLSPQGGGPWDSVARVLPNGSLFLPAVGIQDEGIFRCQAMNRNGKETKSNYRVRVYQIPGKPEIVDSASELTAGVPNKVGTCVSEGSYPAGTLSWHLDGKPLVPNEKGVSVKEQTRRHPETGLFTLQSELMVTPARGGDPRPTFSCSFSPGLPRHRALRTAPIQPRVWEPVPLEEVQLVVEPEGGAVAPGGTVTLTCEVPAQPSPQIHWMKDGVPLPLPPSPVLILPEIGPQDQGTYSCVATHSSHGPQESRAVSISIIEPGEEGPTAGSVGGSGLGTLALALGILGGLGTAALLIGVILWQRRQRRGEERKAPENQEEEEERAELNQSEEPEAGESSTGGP

## CCOCCCN(CC(=O)N(Cc1cccn1Cc1ccc(F)cc1)C1CCCCC1)C(=O)C(C)(C)CCl [FPS1, 3-chloro-N-[2-[cyclohexyl[[1-[(4-fluorophenyl)methyl]-1H-pyrrol-2-yl]methyl]amino]-2-oxoethyl]-N-(3-ethoxypropyl)-2,2-dimethyl-(9Cl)-propanamide]
  Ki/Kd ratio (Ki compound's inhibitory constant, Kd Aβ-RAGE binding constant): 2.6
  inhibitory constant (Ki) of Aβ-RAGE binding: low

## CCCCCC(=Cc1ccccc1)CN(CCc1c[nH]c2ccccc12)C(=O)c1ccc(Cl)c([N+](=O)[O-])c1 [FPS3, 4-chloro-N-[2-(1H-indo-3-yl)-ethyl]-3-nitro-N-(2-pentyl-3-phenyl-allyl)-benzamide]
  Ki/Kd ratio (Ki compound's inhibitory constant, Kd Aβ-RAGE binding constant): 1.6
  inhibitory constant (Ki) of Aβ-RAGE binding: low
